According to PubChem BioAssay AID328 (DTP/NCI, 2004):
“And” between values parts separate entries of the source, which are not always exact repeats. Equal values may be shown once. Inconclusive results and toxic doses are left out.

System: BDF1 mice, P388 leukemia ip, median survival T/C
Assay: NCI In Vivo Anticancer Drug Screen. Data for tumor model P388 Leukemia (intraperitoneal) in B6D2F1 (BDF1) mice
Conditions: endpoint: median survival time, higher = longer survival
Summary of the method: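 Antitumour effect was judged in vivo: survival in drug-treated mice, normalised to that of vehicle-dosed controls, gives the reported T/C.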

[1] = dose: 25.0 mg/kg/injection, schedule: Q04DX003 (ip), vehicle: saline
[2] = dose: 50.0 mg/kg/injection, schedule: Q04DX003 (ip), vehicle: saline with Tween-80
[3] = dose: 50.0 mg/kg/injection, schedule: Q04DX003 (ip), vehicle: saline
[4] = dose: 100.0 mg/kg/injection, schedule: Q04DX003 (ip), vehicle: saline
[5] = dose: 100.0 mg/kg/injection, schedule: Q04DX003 (ip), vehicle: saline with Tween-80
[6] = dose: 200.0 mg/kg/injection, schedule: Q04DX003 (ip), vehicle: saline with Tween-80
[7] = dose: 25.0 mg/kg/injection, schedule: Q01DX009 (ip), vehicle: saline
[8] = dose: 100.0 mg/kg/injection, schedule: Q01DX009 (ip), vehicle: Klucel (hydroxypropylcellulose) (HPC)
[9] = dose: 100.0 mg/kg/injection, schedule: Q04DX003 (ip), vehicle: Klucel (hydroxypropylcellulose) (HPC)
[10] = dose: 200.0 mg/kg/injection, schedule: Q01DX009 (ip), vehicle: Klucel (hydroxypropylcellulose) (HPC)
[11] = dose: 200.0 mg/kg/injection, schedule: Q04DX003 (ip), vehicle: Klucel (hydroxypropylcellulose) (HPC)
[12] = dose: 400.0 mg/kg/injection, schedule: Q04DX003 (ip), vehicle: Klucel (hydroxypropylcellulose) (HPC)
[13] = dose: 50.0 mg/kg/injection, schedule: Q01DX009 (ip), vehicle: saline with Tween-80
[14] = dose: 100.0 mg/kg/injection, schedule: Q01DX009 (ip), vehicle: saline with Tween-80
[15] = dose: 6.25 mg/kg/injection, schedule: Q01DX009 (ip), vehicle: saline

`COc1cc(NS(C)(=O)=O)ccc1Nc1c2ccc([N+](=O)[O-])cc2nc2c(C)c(C)ccc12` was tested, and the T/C (dose: 0.29 mg/kg/injection, schedule: Q04DX003 (ip), vehicle: saline with Tween-80) was 112 % of control, the T/C (dose: 0.44 mg/kg/injection, schedule: Q04DX003 (ip), vehicle: saline with Tween-80) was 154 % of control and the T/C (dose: 0.88 mg/kg/injection, schedule: Q01DX009 (ip), vehicle: saline with Tween-80) was 185 % of control. The T/C (dose: 1.0 mg/kg/injection, schedule: Q04DX003 (ip), vehicle: saline with Tween-80) was 154 % of control, the T/C (dose: 1.33 mg/kg/injection, schedule: Q01DX009 (ip), vehicle: saline with Tween-80) was 203 % of control and the T/C (dose: 2.0 mg/kg/injection, schedule: Q01DX009 (ip), vehicle: saline with Tween-80) was 254 % of control. For the same molecule, the T/C (dose: 2.66 mg/kg/injection, schedule: Q01DX009 (ip), vehicle: saline with Tween-80) was 269 % of control, the T/C (dose: 3.0 mg/kg/injection, schedule: Q01DX009 (ip), vehicle: saline with Tween-80) was 273 % of control and the T/C (dose: 4.0 mg/kg/injection, schedule: Q01DX009 (ip), vehicle: saline with Tween-80) was 272 % of control. For the same molecule, the T/C (dose: 6.0 mg/kg/injection, schedule: Q01DX009 (ip), vehicle: saline with Tween-80) was 211 % of control, the T/C (dose: 9.0 mg/kg/injection, schedule: Q01DX009 (ip), vehicle: saline with Tween-80) was 295 % of control and the T/C (dose: 22.0 mg/kg/injection, schedule: Q04DX003 (ip), vehicle: saline with Tween-80) was 236 % of control and 281 % of control. The T/C [1] was 260 % of control, the T/C (dose: 33.0 mg/kg/injection, schedule: Q04DX003 (ip), vehicle: saline with Tween-80) was 272 % of control and 281 % of control and the T/C [2] was 272 % of control and 281 % of control. The T/C [3] was 230 % of control, the T/C (dose: 75.0 mg/kg/injection, schedule: Q04DX003 (ip), vehicle: saline with Tween-80) was 272 % of control and 122 % of control and the T/C [4] was 95 % of control.
With `CC(Cc1ccc(O)c(O)c1)C(C)Cc1ccc(O)c(O)c1` (centres undefined) the T/C (dose: 50.0 mg/kg/injection, schedule: Q01DX010 (ip), vehicle: saline) was 100 % of control, the T/C (dose: 100.0 mg/kg/injection, schedule: Q01DX010 (ip), vehicle: saline) was 104 % of control and the T/C (dose: 200.0 mg/kg/injection, schedule: Q01DX010 (ip), vehicle: saline) was 104 % of control.
In the case of `ClCCCCCCCCCCc1ccccc1`, the T/C [2] is reported as 106 % of control, the T/C [5] is reported as 109 % of control and 110 % of control and the T/C [6] is reported as 108 % of control and 118 % of control.
`NC(=O)c1ccc(C(N)=O)cc1` was tested, and the T/C [5] was 100 % of control, the T/C [6] was 104 % of control and the T/C (dose: 400.0 mg/kg/injection, schedule: Q04DX003 (ip), vehicle: saline with Tween-80) was 100 % of control.
For `COC(C(=O)C(O)C(C)O)C1CC2C=C3C=C(OC4CC(OC5CC(O)C(OC)C(C)O5)C(OC(C)=O)C(C)O4)C(C)C(=O)C3=C(O)C2=C(O)C1OC1CC(OC2CC(OC3CC(C)(O)C(OC(=O)C(C)C)C(C)O3)C(O)C(C)O2)C(O)C(C)O1` (centres undefined), the T/C (dose: 0.12 mg/kg/injection, schedule: Q01DX001 (ip), vehicle: other) was 150 % of control, the T/C (dose: 0.25 mg/kg/injection, schedule: Q01DX001 (ip), vehicle: other) was 204 % of control and the T/C (dose: 12.5 micrograms/kg/injection, schedule: Q01DX009 (ip), vehicle: saline) was 111 % of control. The T/C (dose: 25.0 micrograms/kg/injection, schedule: Q01DX009 (ip), vehicle: saline) was 111 % of control, the T/C (dose: 31.2 micrograms/kg/injection, schedule: Q01DX001 (ip), vehicle: saline) was 165 % of control and the T/C (dose: 31.2 micrograms/kg/injection, schedule: Q04DX003 (ip), vehicle: saline) was 190 % of control. The T/C (dose: 31.2 micrograms/kg/injection, schedule: Q08DX002 (ip), vehicle: saline) was 190 % of control, the T/C (dose: 50.0 micrograms/kg/injection, schedule: Q01DX009 (ip), vehicle: saline) was 111 % of control and the T/C (dose: 62.5 micrograms/kg/injection, schedule: Q01DX001 (ip), vehicle: saline) was 150 % of control and 195 % of control. For the same molecule, the T/C (dose: 62.5 micrograms/kg/injection, schedule: Q08DX002 (ip), vehicle: saline) was 210 % of control, the T/C (dose: 100.0 micrograms/kg/injection, schedule: Q01DX009 (ip), vehicle: saline) was 111 % of control and the T/C (dose: 125.0 micrograms/kg/injection, schedule: Q01DX001 (ip), vehicle: saline) was 230 % of control. The T/C (dose: 125.0 micrograms/kg/injection, schedule: Q08DX002 (ip), vehicle: saline) was 185 % of control, the T/C (dose: 250.0 micrograms/kg/injection, schedule: Q01DX001 (ip), vehicle: saline) was 240 % of control and 150 % of control and the T/C (dose: 500.0 micrograms/kg/injection, schedule: Q01DX001 (ip), vehicle: saline) was 108 % of control. The T/C (dose: 500.0 micrograms/kg/injection, schedule: Q08DX002 (ip), vehicle: saline) was 100 % of control.
For `C(COCC1CO1)OCC1CO1` (centres undefined), the T/C [7] was 154 % of control and 165 % of control, the T/C [1] was 108 % of control and the T/C (dose: 50.0 mg/kg/injection, schedule: Q01DX009 (ip), vehicle: saline) was 168 % of control and 185 % of control. The T/C [2] was 160 % of control, the T/C (dose: 100.0 mg/kg/injection, schedule: Q01DX009 (ip), vehicle: saline) was 209 % of control and the T/C [5] was 165 % of control. For the same molecule, the T/C [4] was 154 % of control.
For `CCC(=O)Nc1ccc(C)cc1C`, the T/C [8] was 104 % of control, the T/C [9] was 104 % of control and the T/C [10] was 100 % of control. The T/C [11] was 90 % of control, the T/C (dose: 400.0 mg/kg/injection, schedule: Q01DX009 (ip), vehicle: Klucel (hydroxypropylcellulose) (HPC)) was 95 % of control and the T/C [12] was 90 % of control.
For `CCS(=O)(=O)CCN1C(=O)CN=C(c2ccccc2F)c2cc(Cl)ccc21`, the T/C (dose: 12.5 mg/kg/injection, schedule: Q01DX009 (ip), vehicle: saline with Tween-80) was 114 % of control, the T/C (dose: 25.0 mg/kg/injection, schedule: Q01DX009 (ip), vehicle: saline with Tween-80) was 96 % of control and the T/C [13] was 103 % of control and 123 % of control. The T/C [14] was 90 % of control and 107 % of control.
With `N#CC(C#N)=Cc1cccc2ccccc12` the T/C [9] was 104 % of control, the T/C [11] was 100 % of control and the T/C [12] was 113 % of control.
For `CN1CCN(CCCN2c3ccccc3Sc3ccc(Cl)cc32)CC1`, the T/C [15] was 113 % of control and the T/C (dose: 12.5 mg/kg/injection, schedule: Q01DX009 (ip), vehicle: saline) was 109 % of control.
In the case of `Cc1nc2ccccc2c(=O)n1-c1nccs1`, the T/C (dose: 50.0 mg/kg/injection, schedule: Q01DX005 (ip), vehicle: saline with Tween-80) is reported as 102 % of control, the T/C (dose: 100.0 mg/kg/injection, schedule: Q01DX005 (ip), vehicle: saline with Tween-80) is reported as 107 % of control and the T/C (dose: 200.0 mg/kg/injection, schedule: Q01DX005 (ip), vehicle: saline with Tween-80) is reported as 102 % of control.
In the case of `COC1(OC)C2CCC1C(Cl)=C2Cl`, the T/C (dose: 3.13 mg/kg/injection, schedule: Q01DX009 (ip), vehicle: saline) is reported as 102 % of control, the T/C [15] is reported as 100 % of control and the T/C [7] is reported as 109 % of control.
For `CC(C)(C)CC(C)(C)c1c(O)cc(O)cc1Cl`, the T/C (dose: 12.5 mg/kg/injection, schedule: Q01DX009 (ip), vehicle: gum acacia) was 99 % of control, the T/C (dose: 25.0 mg/kg/injection, schedule: Q01DX009 (ip), vehicle: gum acacia) was 91 % of control and the T/C (dose: 50.0 mg/kg/injection, schedule: Q01DX009 (ip), vehicle: gum acacia) was 89 % of control.
`O=C(Nc1nncs1)c1cccs1` was tested, and the T/C (dose: 50.0 mg/kg/injection, schedule: Q04DX002 (ip), vehicle: saline with Tween-80) was 109 % of control, the T/C (dose: 100.0 mg/kg/injection, schedule: Q04DX002 (ip), vehicle: saline with Tween-80) was 93 % of control and the T/C (dose: 600.0 mg/kg/injection, schedule: Q04DX002 (ip), vehicle: saline with Tween-80) was 190 % of control.
In the case of `ClCCOCCOc1ccc(C2CCCCC2)cc1`, the T/C [4] is reported as 100 % of control, the T/C (dose: 200.0 mg/kg/injection, schedule: Q04DX003 (ip), vehicle: saline) is reported as 100 % of control and the T/C (dose: 400.0 mg/kg/injection, schedule: Q04DX003 (ip), vehicle: saline) is reported as 100 % of control.
`Cc1cccnc1N1CCNC1=O` was tested, and the T/C [1] was 90 % of control, the T/C [3] was 90 % of control and the T/C [4] was 100 % of control.
In the case of `CC12C(=O)C(C)(C(c3ccccc3)=C1c1ccccc1)C1(c3ccccc3)C(c3ccccc3)C21c1ccccc1` (centres undefined), the T/C (dose: 50.0 mg/kg/injection, schedule: Q01DX009 (ip), vehicle: Klucel (hydroxypropylcellulose) (HPC)) is reported as 100 % of control, the T/C [8] is reported as 100 % of control and the T/C [10] is reported as 104 % of control.
`COCCCNC1=C(C#N)C(=O)NC2(CCCC2)S1` was tested, and the T/C [13] was 90 % of control, the T/C [14] was 90 % of control and the T/C (dose: 200.0 mg/kg/injection, schedule: Q01DX009 (ip), vehicle: saline with Tween-80) was 104 % of control.
